The results in this text go back to US10238633B2, “Methods for treating pulmonary emphysema using substituted 2-Aza-bicyclo[2.2.1]heptane-3-carboxylic acid (benzyl-cyano-methyl)-amides inhibitors of Cathepsin C” (Boehringer Ingelheim International GmbH, priority 2013, dated 2019).

The assay deals with Neutrophil elastase activity in U937 cells. Nature of the assay: Determination of neutrophil elastase activity in U937 cytosolic lysate preparation after incubation with test compound. The format is cell-based. The conditions noted are these: Homo sapiens, U-937, read-out: Reduction of NE-activity in U937 cells IC50. How it is done: Determination of Neutrophil Elastase Activity in U937 Cytosolic Lysate Preparation after Incubation with Test Compound
Optiplate 384F were purchased from PerkinElmer (Prod. No. #6007270). 24 well Nunclon cell culture plates (No. 142475) and 96 well plates (No. 267245) were from Nunc. Dimethylsulfoxid (DMSO) was from Sigma (Prod. No. D8418). Nonidet-P40 (NP40) was from USBiological (Prod. No. N3500)
Substrate, specific for Neutrophil elastase, was from Bachem (MeOSuc-Ala-Ala-Pro-Val-AMC; Prod. No. 1-1270).
Human neutrophil elastase was from Calbiochem (Prod. No. 324681)
Tris-buffer (100 mM Tris; 1M NaCL; pH 7.5)
Tris-buffer+HSA 0.1%; Human Serum Albumin from Calbiochem (Cat#. 126658)
Serine-protease buffer (20 mM Tris; 100 mM NaCL; pH 7.5)+0.1% HSA
Serine protease lysis buffer: 20 mM Tris-HCL; 100 mM NaCl pH 7.5; +0.2% Nonidet-P40;
PBS: phosphate buffered saline, without Ca and Mg, from Gibco
U937 from ECACC (Cat. No. 85011440) cultured in suspension at 37° C. and 5% CO2.
Cell density: 0.2-1 Mio. Cells/ml.
Medium: RPMI1640 GlutaMAX (No. 61870) with 10% FCS from Gibco
Cell Seeding and Treatment:
Compounds in 100% DMSO were diluted in Medium (—FCS) with 10% DMSO and further diluted according to the experiment planned.
20 μl of the compound solution was transferred in the respective wells of the 24 well plate and diluted with 2 ml cell suspension/well containing […] (final concentration of DMSO=0.1%). Compound dilution factor=100
Compounds (up to 7 concentrations) were tested in triplicates with 3 wells for the DMSO 0.1% control, incubated for 48 hours without medium change at 37° C., 5% CO2 and 95% relative humidity.
Cell Harvesting and Cell Lysate:
Transfer the cell suspension in 2.2 ml Eppendorf cups. Separate cells from medium by centrifugation (400×g; 5 min; RT); discard the supernatant. Resuspend in 1 ml PBS; centrifugation (400×g; 5 min; RT); wash cells twice with PBS. Add 100 μl Serin lysis buffer (ice cold) to the cell pellet; resuspend the pellet and store on ice for 15 minutes. Remove debris by centrifugation at 15000×g for 10 min at 4° C. Transfer 80-100 μl lysate supernatant in 96 well plate and store immediately at −80° C.
Neutrophil Elastase Activity Assay:
Frozen lysates were thawn at 37° C. for 10 minutes and stored on ice. Protein content was determined with Bradford protein assay. Lysates were diluted to 0.2-0.5 mg/ml protein in serine protease buffer+HSA.
Standard: NE (100 μg/ml stock solution in Tris-buffer; stored at −80° C.) was diluted in Tris-buffer+HSA to 750 ng/ml, and further serially diluted 1:2 for the standard curve.
Buffer, blank, standard and lysate samples were transferred into 384 well plate
Blank: 5 μl Tris-buffer+10 μl Tris-buffer+HSA+5 μl Substrate
Standard: 5 μl Tris-buffer+10 μl NE (diff. conc.)+5 μl Substrate
Lysate: 5 μl Tris-buffer+10 μl Lysat+[…] Substrate
The increase in fluorescence (Ex360 nm/Em 460 nm) is determined over 30 minutes with a Molecular Device Spectramax M5 Fluorescence Reader. Kinetic Reduction (Vmax units/sec); 4 vmax points. The amount of neutrophil elastase (ng/ml) is calculated using the standard curve and the Spectramax software. The result is interpolated to ng/mg lysate protein using excel formula functions. […] IC50 is calculated using Graphpad Prism; nonlinear fitting (log(inhibitor) vs. response—Variable slope).

In general, IC50 refers to the concentration that inhibits the measured activity by half.

With `CN1CCN(C(=O)c2cccc(-c3ccc(C[C@@H](C#N)NC(=O)[C@H]4N[C@@H]5CC[C@H]4C5)c(F)c3)c2)CC1` [Example 245], the IC50 is 3.8 nM.

Regarding `CN1CCCN(c2ccc(C[C@@H](C#N)NC(=O)[C@H]3N[C@@H]4CC[C@H]3C4)c(F)c2)CC1` [Example 247], the IC50 was found to be 8 nM. Regarding `N#C[C@H](Cc1ccc(N2CCN3CCOC[C@@H]3C2)cc1F)NC(=O)[C@H]1N[C@@H]2CC[C@H]1C2` [Example 249], the IC50 turned out to be 16.5 nM. Then `N#C[C@H](Cc1ccc(N2CCN3CCOC[C@H]3C2)cc1F)NC(=O)[C@H]1N[C@@H]2CC[C@H]1C2` [Example 250], with 11.5 nM; and `CNc1nc2cc(-c3ccc(C[C@@H](C#N)NC(=O)[C@H]4N[C@@H]5CC[C@H]4C5)c(F)c3)ccc2n1C` [Example 253], with 5.5 nM; and `Cn1cc(-c2ccc(C[C@@H](C#N)NC(=O)[C@H]3N[C@@H]4CC[C@H]3C4)c(F)c2)ccc1=O` [Example 254], with 30.5 nM. Turning to `CC(C)N1CCCN(c2ccc(C[C@@H](C#N)NC(=O)[C@H]3N[C@@H]4CC[C@H]3C4)c(F)c2)CC1` [Example 267], the IC50 is 2.7 nM. As to `CO[C@@H]1C[C@@H]2CN(c3ccc(C[C@@H](C#N)NC(=O)[C@H]4N[C@@H]5CC[C@H]4C5)c(F)c3)CCN2C1` [Example 269], the IC50 was determined as 5.5 nM. Then `N#C[C@H](Cc1ccc(N2CCN3CCC[C@H]3C2)cc1F)NC(=O)[C@H]1N[C@@H]2CC[C@H]1C2` [Example 270], with 1.4 nM; and `CCN1CCN(c2ccc(C[C@@H](C#N)NC(=O)[C@H]3N[C@@H]4CC[C@H]3C4)c(F)c2)CC1` [Example 272], with 2.4 nM; and `CN(C)CCCN1C(=O)Cc2ccc(-c3ccc(C[C@@H](C#N)NC(=O)[C@H]4N[C@@H]5CC[C@H]4C5)c(F)c3)cc21` [Example 277], with 3.6 nM. Regarding `CN(C)CCN1C(=O)Cc2ccc(-c3ccc(C[C@@H](C#N)NC(=O)[C@H]4N[C@@H]5CC[C@H]4C5)c(F)c3)cc21` [Example 278], the IC50 stood at 1 nM.

Turning to `CN(C)CCN1C(=O)Cc2cc(-c3ccc(C[C@@H](C#N)NC(=O)[C@H]4N[C@@H]5CC[C@H]4C5)c(F)c3)ccc21` [Example 279], the IC50 stood at 1.9 nM. As for `N#C[C@H](Cc1ccc(C2=CCN3CCOCC3C2)cc1F)NC(=O)[C@H]1N[C@@H]2CC[C@H]1C2` (stereo partly shown) [Example 281], the figure is 1.9 nM; as for `N#C[C@H](Cc1ccc(C2=CC3COCCN3CC2)cc1F)NC(=O)[C@H]1N[C@@H]2CC[C@H]1C2` (stereo partly shown) [Example 282], 3.4 nM; as for `N#C[C@H](Cc1ccc([C@@H]2CCN3CCOC[C@H]3C2)cc1F)NC(=O)[C@H]1N[C@@H]2CC[C@H]1C2` [Example 283], 4.5 nM. Then `N#C[C@H](Cc1ccc([C@H]2CCN3CCOC[C@H]3C2)cc1F)NC(=O)[C@H]1N[C@@H]2CC[C@H]1C2` [Example 284], with 5.3 nM; and `CN1CCN(C(=O)c2ccc(-c3ccc(C[C@@H](C#N)NC(=O)[C@H]4N[C@@H]5CC[C@H]4C5)c(F)c3)o2)CC1` [Example 289], with 3.9 nM; and `N#CC(Cc1cc2c(=O)[nH]c3cc(F)ccc3c2cc1F)NC(=O)[C@H]1N[C@@H]2CC[C@H]1C2` (stereo partly shown) [Example 293], with 4.6 nM.

`N#CC(Cc1cc2c(=O)[nH]c3ccccc3c2cc1F)NC(=O)[C@H]1N[C@@H]2CC[C@H]1C2` (stereo partly shown) [Example 294]: the IC50 was 7.8 nM. Then `N#CC(Cc1cc2c(=O)[nH]c3ccc(F)cc3c2cc1F)NC(=O)[C@H]1N[C@@H]2CC[C@H]1C2` (stereo partly shown) [Example 295], with 8.6 nM. Then `N#CC(Cc1ccc2c(c1)c(=O)[nH]c1c(F)c(F)ccc12)NC(=O)[C@H]1N[C@@H]2CC[C@H]1C2` (stereo partly shown) [Example 300], with 8.9 nM; and `Cn1c(=O)c2cc(CC(C#N)NC(=O)[C@H]3N[C@@H]4CC[C@H]3C4)ccc2c2ccc(C#N)cc21` (stereo partly shown) [Example 303], with 8.3 nM; and `CN1CCC(Oc2ccc(C[C@@H](C#N)NC(=O)[C@H]3N[C@@H]4CC[C@H]3C4)c(F)c2)CC1` [Example 319, (1S,2S,4R)—N-[(1S)-1-cyano-2-[2-fluoro-4-[(1-methyl-4-piperidyl)oxy]phenyl]ethyl]-3-azabicyclo[2.2.1]heptane-2-carboxamide], with 9.3 nM. Then `CCN1CC=C(c2ccc(C[C@@H](C#N)NC(=O)[C@H]3N[C@@H]4CC[C@H]3C4)c(F)c2)CC1` [Example 320], with 3.7 nM. Regarding `N#C[C@H](Cc1cc2c(=O)[nH]c3ccccc3c2cc1F)NC(=O)[C@H]1N[C@@H]2CC[C@H]1C2` [Example 322], the half-maximal inhibitory concentration (IC50) came out at 2.1 nM. Then `N#C[C@H](Cc1cc2c(=O)[nH]c3cc(F)ccc3c2cc1F)NC(=O)[C@H]1N[C@@H]2CC[C@H]1C2` [Example 323], with 1.4 nM; and `N#C[C@H](Cc1cc2c(=O)[nH]c3c(F)c(F)ccc3c2cc1F)NC(=O)[C@H]1N[C@@H]2CC[C@H]1C2` [Example 324], with 1.3 nM. `N#Cc1cc(F)c2[nH]c(=O)c3cc(C[C@@H](C#N)NC(=O)[C@H]4N[C@@H]5CC[C@H]4C5)c(F)cc3c2c1` [Example 325]: the IC50 was found to be 4.7 nM. For the compound `Cn1c(=O)c2cc(C[C@@H](C#N)NC(=O)[C@H]3N[C@@H]4CC[C@H]3C4)c(F)cc2c2ccccc21` [Example 326], the IC50 worked out at 1.9 nM. As for `CN1CC2CCC(C1)N2c1ccc(C[C@@H](C#N)NC(=O)[C@H]2N[C@@H]3CC[C@H]2C3)c(F)c1` [Example 328], the figure is 1.2 nM; as for `N#C[C@H](Cc1ccc(N2C3CCC2CN(C2CCOC2)C3)cc1F)NC(=O)[C@H]1N[C@@H]2CC[C@H]1C2` (stereo partly shown) [Example 329], 2.5 nM. In the case of `CN1CC2(C1)CN(c1ccc(C[C@@H](C#N)NC(=O)[C@H]3N[C@@H]4CC[C@H]3C4)c(F)c1)C2` [Example 330], the half-inhibitory concentration (IC50) amounted to 37.7 nM. As for `N#C[C@H](Cc1ccc(N2CCN(C3CCOC3)CC2)cc1F)NC(=O)[C@H]1N[C@@H]2CC[C@H]1C2` (stereo partly shown) [Example 331], the figure is 6 nM; as for `N#C[C@H](Cc1ccc(C2=CCN(C3CCOC3)CC2)cc1F)NC(=O)[C@H]1N[C@@H]2CC[C@H]1C2` (stereo partly shown) [Example 332], 5.8 nM.

`CN1C2CCC1CN(c1ccc(C[C@@H](C#N)NC(=O)[C@H]3N[C@@H]4CC[C@H]3C4)c(F)c1)C2` [Example 333]: the IC50 was found to be 4.7 nM.

With `CN1CCN(S(=O)(=O)c2cc(-c3ccc(C[C@@H](C#N)NC(=O)[C@H]4N[C@@H]5CC[C@H]4C5)c(F)c3)ccc2F)CC1` [Example 339], the IC50 was determined as 0.6 nM. For the compound `CN1CCCN(S(=O)(=O)c2ccc(-c3ccc(C[C@@H](C#N)NC(=O)[C@H]4N[C@@H]5CC[C@H]4C5)c(F)c3)cc2)CC1` [Example 340], the IC50 was determined as 0.8 nM.

For the compound `CN(C)CCn1cc(-c2ccc(C[C@@H](C#N)NC(=O)[C@H]3N[C@@H]4CC[C@H]3C4)c(F)c2)ccc1=O` [Example 342], the IC50 is 24.7 nM. Turning to `N#C[C@H](Cc1ccc(-c2ccc(=O)n(CC(F)F)c2)cc1F)NC(=O)[C@H]1N[C@@H]2CC[C@H]1C2` [Example 343], the IC50 turned out to be 16.9 nM. Then `CN(C)C1CCCN(c2ccc(C[C@@H](C#N)NC(=O)[C@H]3N[C@@H]4CC[C@H]3C4)c(F)c2)C1` (stereo partly drawn) [Example 344, (1S,2S,4R)—N-[(1S)-1-cyano-2-[4-[3-(dimethylamino)-1-piperidyl]-2-fluoro-phenyl]ethyl]-3-azabicyclo[2.2.1]heptane-2-carboxamide], with 4.1 nM.

On to `CN(C)CC1CCCN(c2ccc(C[C@@H](C#N)NC(=O)[C@H]3N[C@@H]4CC[C@H]3C4)c(F)c2)C1` (stereo partly shown) [Example 345], for which the IC50 was 6.9 nM. On to `CN1CCC(N2C(=O)Cc3ccc(-c4ccc(C[C@@H](C#N)NC(=O)[C@H]5N[C@@H]6CC[C@H]5C6)c(F)c4)cc32)CC1` [Example 346], for which the half-inhibitory concentration (IC50) amounted to 6.8 nM.
